Assay results: patent US9572882B2, “Compositions and methods for improving cardiovascular function” (RiboCor, INC., priority 2000, dated 2017)
“Also recorded” adds a separate entry of the source. Where two headings read alike, the source gives them in different places.

Key:
[1] = tested on: plasma homocysteine; conditions: cited from earlier work
[2] = tested on: subject with borderline blood pressure; test: Blood pressure in one subject with borderline hypertension given ribose; assay type: in vivo, human
From the text: As shown in Example 1, treatment with ribose improves diastolic cardiac function. Since hypertension is accompanied by left ventricular dysfunction, it is expected that the administration of ribose to patients experiencing hypertension with result in a benefit. One subject has been tested. Their blood pressure has been tested at borderline values of 130/90. Following daily administration of ribose at 5-10 grams per day, their blood pressure was lowered to as low as 108/78.

[3] = tested on: patients with chronic coronary artery disease with stable angina pectoris and chronic heart failure, class II and III; test: Transthoracic echocardiography in double-blinded, randomized, crossover clinical study of ribose vs placebo; assay type: in vivo, human; conditions: oral
From the text: (§1) A double-blinded, randomized, crossover clinical study was initiated to determine whether patients with cardiovascular disease could find a ribose benefit at lower, safer doses. Patients with known chronic coronary artery disease with stable angina pectoris and chronic heart failure, class II and III (New York Classification, NYHA) were selected for the study. […] All patients were being treated with nitrates, molsidim and beta blockers. Three patients were also on diltiazem and an additional three on trapidil. Medications were not altered during the study. Exclusion criteria included patients <18 years of age, those with severe concurrent disease (renal failure, diabetes mellitus, neoplasia), evidence of hyperthyroidism and inability to follow the protocol.
The study consisted of two treatment periods, three weeks in duration. Initially, either ribose or placebo (dextrose) was administered three times a day with meals. Five grams of either ribose of or placebo was dissolved in approximately eight ounces of fluid shortly before administration. Following the initial treatment period, the patients were given no ribose or placebo treatment for one week as a washout period. The patients were then given the alternate treatment for three weeks for the crossover phase of the study.
Measured objectives parameters of systolic and diastolic function were assessed with transthoracic echocardiography. Subjectively, quality of life using the SF36 form, and physical function (exercise tolerance) were assessed. All of the above parameters were assessed at pre- and post-treatment in both arms of the study.
Each echocardiographic assessment was performed by the same clinical individual and accumulated data were analyzed by two cardiologists in a blinded manner, with a consensus establishing a final result. All studies were conducted with commercially available equipment (System V, GE, Norway). To allow off-line quantitative analysis of the echocardiographic data, studies were recorded on videotape with selected cine-loops and velocity spectra digitally transferred to a Macintosh G4 computer (Apple Computers, CA) for subsequent analysis. Software provided by the manufacturer (Echopac®, GE, Norway) was used for data evaluation.
Each echocardiographic assessment was performed transthoracically and a 1.7/3.4 MHZ harmonic transducer was used with the patient examined in the left lateral decubitus position. A one-lead electrocardiogram was recorded continuously during echocardiographic assessment. The M-Mode left atrial dimension was measured at end-systole in the parasternal long-axis view and left ventricular ejection fraction was determined according to the recommendations of the North American Society of Echocardiography. In addition, left atrial volume was determined using the Simpson's rule in the 4 chamber view. Transmitral Doppler inflow velocities were recorded from the apical four-chamber view with the sample volume positioned between the tips of the mitral leaflets during quiet respiration.
The parameters derived from the transmitral velocity spectra were: peak velocity of the early (E) and atrial filling (A) waves, the corresponding velocity time integrals (VTIE and VTIA and the percentage of atrial contribution to total left ventricular filling. The deceleration slope of the E wave was also measured. The percentage of atrial contribution to total left ventricular filling was determined by dividing the VTIA by the total diastolic velocity time integral. The results of five consecutive heart cycles were averaged in each patient to obtain a justified value.
Analysis of variance for repeated measures (ANOVA) was used for the analysis of serial changes of continuous parameters within and between the randomized, assigned treatment arms, i.e. ribose vs placebo. Further comparison were subject to Bonferroni correction. In all cases, a p value s 0.05 was considered statistically significant.

[4] = tested on: patients with cardiovascular disease; athletes; conditions: cited from earlier work
[5] = tested on: patients with chronic coronary artery disease and chronic heart failure; test: Semi-upright bicycle exercise test in the crossover study; assay type: in vivo, human; conditions: beginning vs end of the treatment period
From the text: as §1, with “protocol. The study consisted of two treatment periods, three weeks in duration. Initially, either ribose or placebo (dextrose) was administered three times a day with meals. Five grams of either ribose of or placebo was dissolved in approximately eight ounces of fluid shortly before administration. Following the initial treatment period, the patients were given no ribose or placebo treatment for one week as a washout period. […] Rate pressure product (RPP) was calculated using systolic blood pressure times heart rate and expressed in RPP units.” for “protocol.”

[6] = tested on: patients with chronic coronary artery disease and chronic heart failure; test: Quality of life (SF 36 form) and physical function in the crossover study; assay type: in vivo, human; conditions: oral, 5 g three times a day for three weeks
From the text: as §1, with “protocol. The study consisted of two treatment periods, three weeks in duration. Initially, either ribose or placebo (dextrose) was administered three times a day with meals. […] Measured objectives parameters of systolic and diastolic function were assessed with transthoracic echocardiography. Subjectively, quality of life using the SF36 form, and physical function (exercise tolerance) were assessed. All of the above parameters were assessed at pre- and post-treatment in both arms of the study. Quality of life was assessed in each patient using the SF 36 form. […]” for “protocol.”

[7] = tested on: patients with heart failure; patients with angina; conditions: cited from earlier work
[8] = tested on: congestive heart failure; conditions: 4 weeks of supplementation (Azuma et al 1983); cited from earlier work
[9] = 5 g three times a day for three weeks
[10] = 5 g three times a day for three weeks, p ≦ .005 vs dextrose placebo

Nc1nc2ncc(CNc3ccc(C(=O)N[C@@H](CCC(=O)O)C(=O)O)cc3)nc2c(=O)[nH]1 [Folic acid]
reduction of plasma homocysteine levels ([1]; 250 pg/d dose (Brouwer et al. 1999)): 11% | reduction of plasma homocysteine levels ([1]; 300 pg/d in healthy individuals over 5 weeks (Mansoor)): 20% | reduction of plasma homocysteine ([1]; 300 pg/day plus 120 mg/day of vitamin B6 (Mansoor)): 32% | reduction of plasma homocysteine levels ([1]; 500 pg/d dose (Brouwer et al. 1999)): 22%

O=C[C@H](O)[C@H](O)[C@H](O)CO [Ribose, D-Ribose]
pressure-lowering effects in further studies ([2]; further studies, expected): expected to confirm the pressure-lowering effects | blood pressure after ribose ([2]; one subject, borderline values of 130/90 before, 5-10 grams per day daily): 108/78 | atrial contribution to left ventricular filling as compared to placebo [3, 9]: higher | deceleration time of the E wave as compared to placebo [3, 9]: significant shorter | ejection fraction (EF) [3, 9]: 51.0 ± 7.3% | left atria volume as compared to placebo [3, 9]: significantly smaller | atrial contribution (Ac) ([3]; 5 g three times a day for three weeks, p < .01 vs dextrose placebo): 45.3 ± 9.2 & | deceleration time of the E wave (Edc) [3, 10]: 193.5 ± 45.9 ms | left ventricular systolic volume (LVVs) [3, 10]: 64.4 ± 24.8 mL | stroke volume index (SVI) [3, 10]: 2.63 ± .57 ml/body mass index | diastolic cardiac function ([3]; relatively short term, severe coronary artery disease and congestive heart failure): significantly improved | benefit to patients with cardiovascular disease ([4]; 60 grams daily in four 15 gram doses for three days (Pliml 1992)): benefited | side effects ([4]; 60 grams daily in four 15 gram doses): hypoglycemia with concomitant dizziness, nausea and sweating; also recorded: abdominal distress and diarrhea | treadmill performance of angina patients ([4]; orally administered high doses (Pliml et al 1992)): increased | power output of athletes on exercise bikes ([4]; supplemental ribose (U.S. Pat. No. 6,159,942)): greater | mean maximal attained exercise level [5]: not changed | overall score of the quality of life index ([6]; SF 36 form): significant improvement; also recorded: enhanced | physical function [6]: significant improvement

N=C(N)NCCC[C@H](N)C(=O)O [arginine, L-arginine]
benefits for patients with heart failure ([7]; 5.6 to 12.6 g/day supplemental (Rector et al 1996)): increased blood flow, increased distances in a 6-minute walk test, and improved arterial compliance | exercise capacity in patients with angina ([7]; oral, 6 g/day for 3 days (Ceremuzynski et al 1997)): improved

NCCS(=O)(=O)O [taurine]
dyspnea, palpitation, crackles, edema, and New York Heart Association functional class [8]: highly significant improvement
